Results as given in US9193984B2, “Method for detecting interactions between two and more biological macromolecules” (Korea Basic Science Institute, priority 2008, dated 2015).

Biological target: T1, first construct (TMD-mRFP) in CHO-k1 cells (Homo sapiens, UniProt Q05655, K378R/Y313F)
T1 construct: expressed in transfected cells; host or cells: CHO-k1
Assay: Translocation of first construct (TMD-mRFP) toward the cell membrane depending on PMA concentration
Assay type: cell-based, Cricetulus griseus
From the text: In order to optimize the translocation characteristic of the translocation module, the first construct vector (pTMD-mRFP-C3) shown in FIG. 5 was used to determine the optimum concentration of PMA (phorbol-12-myristate-13-acetate), which was used as an external stimulation. Detailed experimental procedures were the same as in FIG. 5.
A cover slip containing the cells in which the first construct and second construct vectors had been introduced was fixed to a perfusion chamber and mounted on the object stage of a confocal laser fluorescence microscope (Carl Zeiss LSM510). Images of the construct vectors were taken before and after external stimulation (treatment with 1 μM PMA).
Translocation efficiency of the first construct using the pTMD-mRFP-C3 vector depending on the concentration of external stimulant PMA was measured as follows. The expression vector of the first construct was transformed into CHO-k1 cells and overexpressed. After 18 hours of culturing, PMA was treated at 1, 5, 10, 20, 40, 50, 80 and 100 nM and 1 and 5 μM.

T1 sequence (Q05655 whole entry Y313F/K378R): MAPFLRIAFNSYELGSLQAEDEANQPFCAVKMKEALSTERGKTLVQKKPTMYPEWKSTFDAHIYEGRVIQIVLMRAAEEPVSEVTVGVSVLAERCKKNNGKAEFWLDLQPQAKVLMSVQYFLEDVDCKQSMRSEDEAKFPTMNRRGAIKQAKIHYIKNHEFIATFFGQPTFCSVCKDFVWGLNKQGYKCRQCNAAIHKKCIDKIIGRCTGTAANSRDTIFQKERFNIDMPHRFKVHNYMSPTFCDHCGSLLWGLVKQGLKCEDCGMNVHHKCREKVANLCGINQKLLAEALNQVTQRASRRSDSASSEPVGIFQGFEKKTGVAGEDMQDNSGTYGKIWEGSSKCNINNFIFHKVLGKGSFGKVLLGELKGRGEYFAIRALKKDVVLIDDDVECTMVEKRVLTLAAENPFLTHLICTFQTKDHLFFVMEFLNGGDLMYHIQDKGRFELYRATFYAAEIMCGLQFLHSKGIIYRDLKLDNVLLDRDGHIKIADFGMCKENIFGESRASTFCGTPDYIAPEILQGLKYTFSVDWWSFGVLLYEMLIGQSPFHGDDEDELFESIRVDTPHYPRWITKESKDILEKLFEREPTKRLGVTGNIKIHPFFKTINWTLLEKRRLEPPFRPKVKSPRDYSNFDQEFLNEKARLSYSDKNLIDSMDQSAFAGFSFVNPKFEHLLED

With `CCCCCCCCCCCCCC(=O)O[C@@H]1[C@@H](C)[C@@]2(O)[C@@H](C=C(CO)C[C@]3(O)C(=O)C(C)=C[C@@H]23)[C@@H]2C(C)(C)[C@]12OC(C)=O` [PMA, phorbol-12-myristate-13-acetate] the “cells with translocation of first construct toward the cell membrane” value (PMA 50 nM, CHO-k1, 200 cells counted) was at least 90% and the “movement of red fluorescence toward the cell membrane” value (PMA 100 nM or higher) was “increased”.
